Data: patent publication US11802120B2, “Fused cyclic urea derivatives as CRHR2 antagonist” (RaQualia Pharma Inc., priority 2018, dated 2023)
pIC50: −log10 of the molar value.

Molecular target: T1, human CRHR2-alpha (Homo sapiens, UniProt Q13324)
T1 sequence (Q13324 1-411): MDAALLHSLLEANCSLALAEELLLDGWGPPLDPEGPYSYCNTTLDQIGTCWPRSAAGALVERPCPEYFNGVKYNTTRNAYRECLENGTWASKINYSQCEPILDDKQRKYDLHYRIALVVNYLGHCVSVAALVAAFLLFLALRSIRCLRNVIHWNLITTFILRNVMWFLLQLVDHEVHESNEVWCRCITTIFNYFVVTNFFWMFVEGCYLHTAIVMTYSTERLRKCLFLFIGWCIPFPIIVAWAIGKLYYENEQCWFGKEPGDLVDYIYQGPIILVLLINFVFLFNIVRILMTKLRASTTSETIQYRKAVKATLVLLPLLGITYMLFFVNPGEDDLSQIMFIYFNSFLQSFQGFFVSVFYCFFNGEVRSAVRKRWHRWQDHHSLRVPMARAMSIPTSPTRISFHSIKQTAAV
Assay: cAMP functional assay for human CRHR2 (LANCE Ultra cAMP, TR-FRET)
Format: cell-based
Settings: CHO-K1 cells expressing human CRHR2-alpha, agonist human urocortin2 at EC80, cAMP; read-out: IC50 against CRHR2
Method in brief: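 IC50 values derive from percent inhibition of EC80 agonist-stimulated cAMP in CHO-K1 transfectants, with 0.5 mM IBMX present; the CRHR2 line was stimulated by human urocortin2 and the CRHR1 line by CRF.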

pIC50, > 6.52:
Cc1ncc(Cl)cc1C(=O)N[C@H]1CC[C@H](Cn2c(=O)n(-c3ccc4c(C(=O)N(C)C)noc4c3)c3ccccc32)CC1 [Example 245, 6-(3-(((1r,4r)-4-(5-chloro-2-methylnicotinamido)cyclohexyl)methyl)-2-oxo-2,3-dihydro-1H-benzol[d]imidazol-1-yl)-N,N-dimethylbenzo[d]isoxazole-3-carboxamide]
COCCN(C)c1ccc(-n2c(=O)n(C[C@H]3CC[C@H](NC(=O)c4cc(Cl)cnc4C)CC3)c3ccccc32)cn1 [Example 53, 5-chloro-N-((1r,4r)-4-((3-(6-((2-methoxyethyl)(methyl)amino)pyridin-3-yl)-2-oxo-2,3-dihydro-1H-benzo[d]imidazol-1-yl)methyl)cyclohexyl)-2-methylnicotinamide]
Cc1ncc(Cl)cc1C(=O)N[C@H]1CC[C@H](Cn2c(=O)n(-c3cnc4cccnc4c3)c3ccccc32)CC1 [Example 442, N-((1r,4r)-4-((3-(1,5-naph-thyridin-3-yl)-2-oxo-2,3-dihydro-1H-benzo[d]imidazol-1-yl)methyl)cyclo-hexyl)-5-chloro-2-methyl-nicotinamide]
Cc1ncc(Cl)cc1C(=O)N[C@H]1CC[C@H](Cn2c(=O)n(-c3ccn4ccnc4c3)c3ccccc32)CC1 [Example 272, 5-chloro-N-((1r,4r)-4-((3-(imidazo[1,2-a]pyridin-7-yl)-2-oxo-2,3-dihydro-1H-benzo [d]imidazol-1-yl)methyl)cyclohexyl)-2-methyl-nicotinamide]
Cc1ncc(Cl)cc1C(=O)N[C@H]1CC[C@H](Cn2c(=O)n(-c3ccc(NC4CC(F)(F)C4)nc3)c3ccccc32)CC1 [Example 108, 5-chloro-N-((1r,4r)-4-((3-(6-((3,3-difluorocyclobutyl)amino)pyridin-3-yl)-2-oxo-2,3-dihydro-1H-benzo[d]imidazol-1-yl)methyl)cyclohexyl)-2-methylnicotinamide]
O=C(NCC(F)F)c1ccc(-n2c(=O)n(C[C@H]3CC[C@H](NC(=O)c4cc(Cl)cnc4C(F)(F)F)CC3)c3ccccc32)cn1 [Example 411, 5-(3-(((1r,4r)-4-(5-chloro-2-(trifluoromethyl)nicotinamido)cyclohexyl)methyl)-2-oxo-2,3-dihydro-1H-benzo[d]imidazol-1-yl)-N-(2,2-difluoroethyl) picolinamide]
Cc1ncc(Cl)cc1C(=O)N[C@H]1CC[C@H](Cn2c(=O)n(-c3cnc4ccccc4c3)c3ccccc32)CC1 [Example 346, 5-chloro-2-methyl-N-((1r,4r)-4-((2-oxo-3-(quinolin-3-yl)-2,3-dihydro-1H-benzo[d]imidazol-1-yl)methyl)cyclo-hexyl)nicotinamide]
COC1CN(c2ccc(-n3c(=O)n(C[C@H]4CC[C@H](NC(=O)c5cc(Cl)cnc5C(F)F)CC4)c4ccccc43)cn2)C1 [Example 554, 5-chloro-2-(difluoromethyl)-N-((1r,4r)-4-((3-(6-(3-methoxyazetidin-1-yl)pyridin-3-yl)-2-oxo-2,3-dihydro-1H-benzo[d]imidazol-1-yl)methyl)cyclohexyl)nicotinamide]
O=C(N[C@H]1CC[C@H](Cn2c(=O)n(-c3cccc(N4CCCC4=O)n3)c3ccccc32)CC1)c1cc(Cl)cnc1C(F)F [Example 776, 5-chloro-2-(difluoromethyl)-N-((1r,4r)-4-((2-oxo-3-(6-(2-oxo-pyrrolidin-1-yl)pyridin-2-yl)-2,3-dihydro-1H-benzo[d]imidazol-1-yl)methyl)cyclo-hexyl)nicotinamide]
O=C(N[C@H]1CC[C@H](Cn2c(=O)n(-c3ccccc3Cl)c3ncccc32)CC1)c1cc(Cl)cnc1C(F)(F)F [Example 288, 5-chloro-N-((1r,4r)-4-((3-(2-chlorophenyl)-2-oxo-2,3-dihydro-1H-imidazo[4,5-b]pyridin-1-yl)methyl)cyclo-hexyl)-2-(trifluoromethyl) nicotinamide]
COc1ccc(-n2c(=O)n(C[C@H]3CC[C@H](NC(=O)c4cc(Cl)cnc4C(F)F)CC3)c3ccccc32)cn1 [Example 323, 5-chloro-2-(difluoromethyl)-N-((1r,4r)-4-((3-(6-methoxy-pyridin-3-yl)-2-oxo-2,3-di-hydro-1H-benzo[d]imidazol-1-yl)methyl)cyclohexyl)nico-tinamide]
Cn1cc(-c2cccc(-n3c(=O)n(C[C@H]4CC[C@H](NC(=O)c5cc(Cl)cnc5C(F)F)CC4)c4ccccc43)n2)cn1 [Example 657, 5-chloro-2-(difluoromethyl)-N-((1r,4r)-4-((3-(6-(1-methyl-1H-pyrazol-4-yl)pyridin-2-yl)-2-oxo-2,3-dihydro-1H-benzo[d]imidazol-1-yl)methyl)cyclohexyl)nicotinamide]
O=C(N[C@H]1CC[C@H](Cn2c(=O)n(-c3ccc(N4CCOCC4)nc3)c3ccccc32)CC1)c1cc(Cl)cnc1C(F)F [Example 383, 5-chloro-2-(difluoromethyl)-N-((1r,4r)-4-((3-(6-morpholino-pyridin-3-yl)-2-oxo-2,3-dihydro-1H-benzo[d]imidazol-1-yl)methyl)cyclohexyl) nicotinamide]
O=C(N[C@H]1CC[C@H](Cn2c(=O)n(-c3cncc(-c4ncco4)c3)c3ccccc32)CC1)c1cc(Cl)cnc1C(F)F [Example 688, 5-chloro-2-(difluoromethyl)-N-((1r,4r)-4-((3-(5-(oxazol-2-yl)pyridin-3-yl)-2-oxo-2,3-dihydro-1H-benzo[d]imidazol-1-yl)methyl)cyclohexyl) nicotinamide]
O=C(N[C@H]1CC[C@H](Cn2c(=O)n(-c3ccc4ccncc4c3)c3ccccc32)CC1)c1cc(Cl)cnc1C(F)F [Example 423, 5-chloro-2-(difluoromethyl)-N-((1r,4r)-4-((3-(isoquinolin-7-yl)-2-oxo-2,3-dihydro-1H-benzo[d]imidazol-1-yl)methyl)cyclohexyl)nicotinamide]
O=C(N[C@H]1CC[C@H](Cn2c(=O)n(Cc3ccncc3)c3ccccc32)CC1)c1cc(Cl)ccc1C(F)(F)F [Example 281, 5-chloro-N-((1r,4r)-4-((2-oxo-3-(pyridin-4-ylmethyl)-2,3-dihydro-1H-benzo[d]imidazol-1-yl)methyl)cyclohexyl)-2-(trifluoromethyl)benzamide]
Cc1ncc(Cl)cc1C(=O)N[C@H]1CC[C@H](Cn2c(=O)n(C3CCN(c4cccnc4)CC3)c3ccccc32)CC1 [Example 513, 5-chloro-2-methyl-N-((1r,4r)-4-((2-oxo-3-(1-(pyridin-3-yl)piperidin-4-yl)-2,3-dihydro-1H-benzo [d]imidazol-1-yl)methyl)cyclohexyl)nicotinamide]
Cc1ncc(Cl)cc1C(=O)N[C@H]1CC[C@H](Cn2c(=O)n(-c3ccc(NCC(F)(F)F)nc3)c3ccccc32)CC1 [Example 436, 5-chloro-2-methyl-N-((1r,4r)-4-((2-oxo-3-(6-((2,2,2-trifluoro-ethyl)amino)pyridin-3-yl)-2,3-dihydro-1H-benzo[d]imidazol-1-yl)methyl)cyclohexyl) nicotinamide]
